According to paper PMC8403366, “Functional significance of gain-of-function H19 lncRNA in skeletal muscle differentiation and anti-obesity effects” (Genome Medicine, 2021):

Assays:
Type in all cases: in vivo, mouse
Lep^Ob/Ob mice = assay: Leptin deficiency-induced obesity model
Experimental: The mice used in this study were purchased from Jackson Lab as follows: Lep^Ob/Ob (stock 000632), C57BL/6 J (stock 000664). All animals were from a C57BL/6 J background and housed with a 12 h light/12 h dark cycle in the animal facility with free access to water and food. 4 to 10 mice were used in each group. Exact numbers for each experiment are included in the figure legends.
To determine the effects of H19-Rgof with a skeletal muscle enrichment peptide agrin (AGR-H19-Rgof) on WT C57BL/6 J or Lep^Ob/Ob mice, AGR-tagged oligonucleotides were used. The synthesis and sequence information of AGR-tagged RNA oligonucleotides are described in “Synthesis of H19-Rgof mimics, AGR-H19-Rgof mimics, and Pharmacokinetics (PK) studies.” AGR-Scr (conjugated to scramble oligonucleotides), H19-Rgof, or AGR-H19-Rgof mimics were injected at a dose of 1 mg/kg intraperitoneally into 3-week-old male and female mice. For AGR-H19-Rgof treatment in HFD (Cat # D12492, Research Diets, Inc.)-fed mice, male C57BL/6 J mice were fed with a HFD starting at 6 weeks of age. The AGR-H19-Rgof and AGR-Scr mimics were injected at a dose of 0.5 or 1 mg/kg intraperitoneally every other day starting 2 weeks after the initiation of HFD feeding. Body weight was measured weekly. The general health condition, grooming, and behavior of all animals were monitored daily, and injection sites were checked for signs of redness or edema.
Unless otherwise indicated, mice were fasted for 4–6 h, anesthetized with isoflurane, and sacrificed by heart puncture. Tissues were dissected, weighed, and either dipped in liquid nitrogen or fixed for immunohistochemistry analysis. Individual muscle was dissected on one side of the body and weighed. […]
H&E staining was performed in paraffin-embedded livers to visualize the pattern of lipid accumulation and inflammatory status. […] Adipocyte size (from WAT) was determined with ImageJ software. Sections from five animals per group were used and at least 500 adipocytes per animal were measured from multiple fields.

C57BL/6 J mice [1] = assay: Liver Oil Red O / H&E staining and WAT adipocyte size
Experimental: H&E staining was performed in paraffin-embedded livers to visualize the pattern of lipid accumulation and inflammatory status. Lipid droplet accumulation in the liver was visualized using Oil Red O (O0625, Sigma) staining of frozen liver sections prepared in an optimum cutting temperature (O.C.T.) compound (4585, Fisher Scientific). Histopathology images were acquired with a light microscope (Olympus). Adipocyte size (from WAT) was determined with ImageJ software. Sections from five animals per group were used and at least 500 adipocytes per animal were measured from multiple fields.

C57BL/6 J mice [2] = assay: Glucose and insulin tolerance tests; settings: n = 5
Experimental: Insulin (ITT) and glucose (GTT) tolerance tests were performed on 6-h fasted male and female mice fed with chow or HFD. Glucose values were measured using AimStrip® Plus Blood Glucose Meter (VWR) by tail snip. Glucose (1 g per kg body weight) or human insulin (0.75 U per kg body weight) was injected intraperitoneally (i.p.) after baseline glucose levels were measured in each mouse, and blood glucose levels were measured 15, 30, 45, 60, and 90 min after injection.

C57BL/6 J mice [3] = assay: Echocardiography and diaphragm/aorta histology; settings: vs AGR-Scr
Experimental: The heart function of the mice was assessed using functional rodent echocardiography. After their body hair from the neckline to mid chest level was removed with hair removal cream, the mice were anesthetized with 2% isoflurane in the induction chamber and placed in a supine position atop a heating pad to maintain body temperature. The concentration of isoflurane was adjusted to keep a target heart rate of 450 ± 50 beats per minute (bpm). A rectal probe was gently inserted to continuously monitor and adjust body temperature (37.0 °C ± 0.5 °C) via the heating pad. Electrode gel was applied to all four paws, which were then taped to the ECG electrodes. The mice were subjected to transthoracic echo using Vevo 2100 (MS-550D, 22–55 MHz, VisualSonics Inc.).
Tissues were fixed in 10% Neutral Buffered Formalin embedded in paraffin, sectioned at 5 μm, and stained with hematoxylin/eosin (H&E). Detection of H19 expression using a RNAScope probe (designed by Advanced Cell Diagnostics) was performed on mouse tissues with a RNAScope 2.0 High Definition Assay kit according to the manufacturer's instructions (Advanced Cell Diagnostics). The images were visualized with a Zeiss Axioskop2 plus Microscope, and the slides were scanned on the Automated Cellular Image System III for quantification by digital image analysis.

In the case of “N-terminal-ELTNEIPAELTNEIPA-Linker-5'-[2’-F-C][2’-F-U][2’-F-C][2’-F-U][2’-F-U][2’-F-U][2’-F-A][2’-F-U][2’-F-U][2’-F-U][2’-F-C][2’-F-U][2’-F-G][2’-F-A][2’-F-G][2’-F-C][2’-F-U][2’-F-U][2’-F-U][2’-F-C][2’-F-C][2’-F-U][2’-F-A][2’-F-U][2’-F-C][2’-F-U][2’-F-U][2’-F-U][2’-F-C][2’-F-C]-3' [AGR-H19-Rgof]”, the “fatty acid deposition in livers” value (Lep^Ob/Ob mice; Lep^ob/ob mice, Oil Red O, n = 8, 8) is reported as “significantly improved”, the muscle mass (Lep^Ob/Ob mice; Lep^ob/ob mice, vs AGR-Scr, n = 10, 9) is reported as “increased” and the body weight (Lep^Ob/Ob mice; male Lep^ob/ob mice, 8 weeks post-treatment, vs AGR-Scr, n = 10, 9) is reported as “reduced”. For the same substance, the “fatty acid deposition in the liver and WAT” value (C57BL/6 J mice [1]; HFD-fed mice, H&E and Oil Red O, liver weight) was “significantly reduced”, the “adipocyte size in WAT” value (C57BL/6 J mice [1]; WT male mice on chow, H&E, vs AGR-Scr, n = 5) was “reduced” and the “fatty acid accumulation in the liver” value (C57BL/6 J mice [1]; WT male mice on chow, Oil Red O, vs AGR-Scr, n = 8) was “reduced”. For the same substance, the “glucose metabolism (GTT)” value (C57BL/6 J mice [2]; HFD-fed male mice) was “improved”, the “insulin resistance (ITT, serum insulin, HOMA-IR)” value (C57BL/6 J mice [2]; HFD-fed male mice) was “alleviated” and the “blood glucose levels in response to a glucose challenge (GTT)” value (C57BL/6 J mice [2]; WT male mice on chow, glucose 1 g per kg i.p.) was “reduced”. The “blood glucose levels in response to an insulin challenge (ITT)” value (C57BL/6 J mice [2]; WT male mice on chow, insulin 0.75 U per kg i.p.) was “reduced”, the “LV end diastolic diameter, LV stroke volume, LV ejection fraction, LV fractional shortening, interventricular septal end diastole” value (C57BL/6 J mice [3]; echocardiography, n = 10) was “minimally affected” and the “aorta tunica media and tunica adventitia thickness” value (C57BL/6 J mice [3]; histology, n = 6) was “unaltered”. The diaphragm thickness (C57BL/6 J mice [3]; histology, n = 6) was “increased thickness”.
